Measured values from PubChem BioAssay AID248 (DTP/NCI, 2004).
Where “and” joins values, the source holds several entries; their conditions need not be identical. Equal values may be shown once. Toxic doses and inconclusive results are not listed. Rule as the data show it: active = T/C of 150% or more; inactive = T/C below 125%.

Test system: L1210 leukemia ip in BDF1 mice, survival T/C
Test: NCI In Vivo Anticancer Drug Screen. Data for tumor model L1210 Leukemia (intraperitoneal) in B6D2F1 (BDF1) mice
Details: endpoint: mean survival time, higher = longer survival
Method in brief: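 Transplanted-tumor mice were given test agent; controls received vehicle only. Survival readings from the two groups were divided (treated over control).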

[1] = dose: 100.0 mg/kg/injection, schedule: Q04DX003 (ip), vehicle: saline with Tween-80
[2] = dose: 200.0 mg/kg/injection, schedule: Q04DX003 (ip), vehicle: saline with Tween-80
[3] = dose: 400.0 mg/kg/injection, schedule: Q04DX003 (ip), vehicle: saline with Tween-80
[4] = dose: 100.0 mg/kg/injection, schedule: Q01DX009 (ip), vehicle: Klucel (hydroxypropylcellulose) (HPC)
[5] = dose: 100.0 mg/kg/injection, schedule: Q04DX003 (ip), vehicle: Klucel (hydroxypropylcellulose) (HPC)
[6] = dose: 200.0 mg/kg/injection, schedule: Q01DX009 (ip), vehicle: Klucel (hydroxypropylcellulose) (HPC)
[7] = dose: 200.0 mg/kg/injection, schedule: Q04DX003 (ip), vehicle: Klucel (hydroxypropylcellulose) (HPC)
[8] = dose: 400.0 mg/kg/injection, schedule: Q04DX003 (ip), vehicle: Klucel (hydroxypropylcellulose) (HPC)
[9] = dose: 200.0 mg/kg/injection, schedule: Q01DX001 (ip), vehicle: other
[10] = dose: 200.0 mg/kg/injection, schedule: Q01DX009 (ip), vehicle: saline with Tween-80
[11] = dose: 400.0 mg/kg/injection, schedule: Q01DX009 (ip), vehicle: saline with Tween-80
[12] = dose: 12.5 mg/kg/injection, schedule: Q01DX009 (ip), vehicle: saline with Tween-80
[13] = dose: 50.0 mg/kg/injection, schedule: Q01DX009 (ip), vehicle: saline with Tween-80
[14] = dose: 100.0 mg/kg/injection, schedule: Q01DX001 (ip), vehicle: carboxymethylcellulose (CMC)
[15] = dose: 200.0 mg/kg/injection, schedule: Q01DX001 (ip), vehicle: carboxymethylcellulose (CMC)
[16] = dose: 400.0 mg/kg/injection, schedule: Q01DX001 (ip), vehicle: carboxymethylcellulose (CMC)
[17] = dose: 400.0 mg/kg/injection, schedule: Q01DX009 (ip), vehicle: Klucel (hydroxypropylcellulose) (HPC)

Measured: T/C

Cc1cc(C)c(N2C(=O)C=CC2=O)c(C)c1
inactive: dose: 0.39 mg/kg/injection, schedule: Q01DX009 (ip), vehicle: saline with Tween-80 94 % of control | dose: 0.78 mg/kg/injection, schedule: Q01DX009 (ip), vehicle: saline with Tween-80 94 % of control | dose: 1.56 mg/kg/injection, schedule: Q01DX009 (ip), vehicle: saline with Tween-80 95 % of control and 108 % of control | dose: 6.25 mg/kg/injection, schedule: Q01DX009 (ip), vehicle: saline with Tween-80 88 % of control

C1=CC2(CCCC1)OCCO2
inactive: [1] 100 % of control | [2] 97 % of control | [3] 108 % of control

O=C(O)C1c2ccccc2Cc2ccccc21
inactive: [4] 110 % of control | [5] 103 % of control | [6] 101 % of control | [7] 97 % of control | [8] 106 % of control

CN(CCO)/N=N/c1nc[nH]c1C#N
inactive: dose: 100.0 mg/kg/injection, schedule: Q01DX001 (ip), vehicle: other 98 % of control | dose: 100.0 mg/kg/injection, schedule: Q01DX009 (ip), vehicle: saline with Tween-80 103 % of control | [1] 102 % of control | [9] 100 % of control | [10] 103 % of control | [2] 107 % of control | dose: 400.0 mg/kg/injection, schedule: Q01DX001 (ip), vehicle: other 94 % of control | [11] 113 % of control | [3] 102 % of control

O=[N+]([O-])c1cccc(N(CCF)CCF)c1
inactive: dose: 5.0 mg/kg/injection, schedule: Q01DX001 (ip), vehicle: carboxymethylcellulose (CMC) 103 % of control | dose: 10.0 mg/kg/injection, schedule: Q01DX001 (ip), vehicle: carboxymethylcellulose (CMC) 103 % of control | dose: 20.0 mg/kg/injection, schedule: Q01DX001 (ip), vehicle: carboxymethylcellulose (CMC) 112 % of control

CC(=O)N1CCC(CC2CCCCC2)CC1
inactive: dose: 12.5 mg/kg/injection, schedule: Q04DX003 (ip), vehicle: saline 97 % of control | dose: 25.0 mg/kg/injection, schedule: Q04DX003 (ip), vehicle: saline 100 % of control | dose: 50.0 mg/kg/injection, schedule: Q04DX003 (ip), vehicle: saline 100 % of control

CN(C)/N=C\c1ccccc1Cl
inactive: [12] 91 % of control | dose: 25.0 mg/kg/injection, schedule: Q01DX009 (ip), vehicle: saline with Tween-80 102 % of control | [13] 100 % of control and 101 % of control | dose: 100.0 mg/kg/injection, schedule: Q01DX001 (ip), vehicle: saline with Tween-80 100 % of control | [1] 101 % of control | dose: 200.0 mg/kg/injection, schedule: Q01DX001 (ip), vehicle: saline with Tween-80 96 % of control | [2] 98 % of control | dose: 400.0 mg/kg/injection, schedule: Q01DX001 (ip), vehicle: saline with Tween-80 117 % of control

Cc1ccc(-c2nc3ccccc3c(=O)o2)cc1
inactive: dose: 50.0 mg/kg/injection, schedule: Q01DX009 (ip), vehicle: gum acacia 93 % of control and 100 % of control | dose: 100.0 mg/kg/injection, schedule: Q01DX009 (ip), vehicle: gum acacia 93 % of control and 100 % of control | dose: 100.0 mg/kg/injection, schedule: Q04DX003 (ip), vehicle: gum acacia 106 % of control | dose: 200.0 mg/kg/injection, schedule: Q04DX003 (ip), vehicle: gum acacia 88 % of control

CC(C)=CCC/C(C)=C\C=N\O
inactive: [14] 101 % of control | [15] 95 % of control | [16] 98 % of control

COCNC(=S)N/N=C/c1ccccn1
inactive: [12] 124 % of control | [13] 124 % of control

CS(=O)(=O)OCCN(CCOS(C)(=O)=O)c1ccc(/C=N/Nc2ncnc3nc[nH]c23)cc1
inactive: dose: 12.5 mg/kg/injection, schedule: Q01DX009 (ip), vehicle: saline 124 % of control | dose: 50.0 mg/kg/injection, schedule: Q01DX001 (ip), vehicle: saline 119 % of control | dose: 89.0 mg/kg/injection, schedule: Q01DX001 (ip), vehicle: other 105 % of control | dose: 100.0 mg/kg/injection, schedule: Q01DX001 (ip), vehicle: saline 107 % of control | dose: 100.0 mg/kg/injection, schedule: Q01DX009 (ip), vehicle: saline 98 % of control | dose: 133.0 mg/kg/injection, schedule: Q01DX001 (ip), vehicle: other 110 % of control | [9] 103 % of control | dose: 200.0 mg/kg/injection, schedule: Q01DX001 (ip), vehicle: saline 119 % of control | dose: 300.0 mg/kg/injection, schedule: Q01DX001 (ip), vehicle: other 114 % of control | dose: 400.0 mg/kg/injection, schedule: Q01DX001 (ip), vehicle: saline 113 % of control

CC(=O)N(C)c1ccc(NC(=O)C2CCCCC2C(=O)O)cc1 (configuration not stated)
inactive: [4] 98 % of control | [6] 95 % of control | [17] 93 % of control

O=C(NCCF)NC1CCCCCCCCCCC1
inactive: dose: 9.5 mg/kg/injection, schedule: Q01DX001 (ip), vehicle: other 101 % of control | dose: 19.0 mg/kg/injection, schedule: Q01DX001 (ip), vehicle: other 92 % of control | dose: 38.0 mg/kg/injection, schedule: Q01DX001 (ip), vehicle: other 121 % of control

C=C(Cl)CSCC
inactive: [1] 111 % of control

Cc1ccc(NC(=O)Nc2cccc(C(F)(F)F)c2)cc1NC(=O)Nc1cccc(C(F)(F)F)c1
inactive: [1] 93 % of control | [10] 92 % of control | [11] 103 % of control | [3] 88 % of control

COc1ccc(N=O)c(O)c1
inactive: dose: 25.0 mg/kg/injection, schedule: Q01DX009 (ip), vehicle: Klucel (hydroxypropylcellulose) (HPC) 104 % of control | dose: 50.0 mg/kg/injection, schedule: Q01DX001 (ip), vehicle: carboxymethylcellulose (CMC) 93 % of control | dose: 50.0 mg/kg/injection, schedule: Q01DX009 (ip), vehicle: Klucel (hydroxypropylcellulose) (HPC) 103 % of control | [14] 97 % of control | [4] 106 % of control | [15] 104 % of control | [16] 101 % of control

O=C(Nc1cccc(O)c1)Nc1ccccc1F
inactive: dose: 100.0 mg/kg/injection, schedule: Q01DX001 (ip), vehicle: Klucel (hydroxypropylcellulose) (HPC) 102 % of control | [4] 102 % of control and 90 % of control | dose: 100.0 mg/kg/injection, schedule: Q04DX002 (ip), vehicle: Klucel (hydroxypropylcellulose) (HPC) 97 % of control and 92 % of control | [5] 103 % of control | dose: 200.0 mg/kg/injection, schedule: Q01DX001 (ip), vehicle: Klucel (hydroxypropylcellulose) (HPC) 104 % of control | [6] 96 % of control and 101 % of control | dose: 200.0 mg/kg/injection, schedule: Q04DX002 (ip), vehicle: Klucel (hydroxypropylcellulose) (HPC) 98 % of control and 99 % of control | [7] 110 % of control | dose: 400.0 mg/kg/injection, schedule: Q01DX001 (ip), vehicle: Klucel (hydroxypropylcellulose) (HPC) 104 % of control | [17] 98 % of control and 101 % of control | dose: 400.0 mg/kg/injection, schedule: Q04DX002 (ip), vehicle: Klucel (hydroxypropylcellulose) (HPC) 115 % of control and 89 % of control | [8] 98 % of control

N=C(OCCCO)C(=N)OCCCO
inactive: [1] 115 % of control | [2] 102 % of control | [3] 96 % of control
